{"source": "paper PMC10178848", "about": "“Modulating fast skeletal muscle contraction protects skeletal muscle in animal models of Duchenne muscular dystrophy” (The Journal of Clinical Investigation, 2023)", "key": {"[1]": {"molecular_target": "T1, p38-alpha (Homo sapiens, UniProt Q16539)", "T1 construct": "purchased Eurofins DiscoverX (KINOMEscan; SAFETYscan E/IC50 ELECT)", "T1 sequence (Q16539 whole entry)": "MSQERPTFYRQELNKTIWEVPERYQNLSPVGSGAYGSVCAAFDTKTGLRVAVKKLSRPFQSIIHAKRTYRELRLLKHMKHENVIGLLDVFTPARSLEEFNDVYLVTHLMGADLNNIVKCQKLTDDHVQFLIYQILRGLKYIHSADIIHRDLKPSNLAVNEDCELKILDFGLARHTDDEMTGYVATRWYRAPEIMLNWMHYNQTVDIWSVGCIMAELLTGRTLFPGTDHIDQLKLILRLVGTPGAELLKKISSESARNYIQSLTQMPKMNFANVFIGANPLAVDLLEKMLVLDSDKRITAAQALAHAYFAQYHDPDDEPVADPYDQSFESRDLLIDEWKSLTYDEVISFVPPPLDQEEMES", "experiment": "KINOMEscan scanEDGE", "assay_type": "binding", "conditions": "20 uM"}, "[2]": {"molecular_target": "T2, PRKCE (Homo sapiens, UniProt Q02156)", "T2 construct": "purchased Eurofins DiscoverX (KINOMEscan; SAFETYscan E/IC50 ELECT)", "T2 sequence (Q02156 whole entry)": "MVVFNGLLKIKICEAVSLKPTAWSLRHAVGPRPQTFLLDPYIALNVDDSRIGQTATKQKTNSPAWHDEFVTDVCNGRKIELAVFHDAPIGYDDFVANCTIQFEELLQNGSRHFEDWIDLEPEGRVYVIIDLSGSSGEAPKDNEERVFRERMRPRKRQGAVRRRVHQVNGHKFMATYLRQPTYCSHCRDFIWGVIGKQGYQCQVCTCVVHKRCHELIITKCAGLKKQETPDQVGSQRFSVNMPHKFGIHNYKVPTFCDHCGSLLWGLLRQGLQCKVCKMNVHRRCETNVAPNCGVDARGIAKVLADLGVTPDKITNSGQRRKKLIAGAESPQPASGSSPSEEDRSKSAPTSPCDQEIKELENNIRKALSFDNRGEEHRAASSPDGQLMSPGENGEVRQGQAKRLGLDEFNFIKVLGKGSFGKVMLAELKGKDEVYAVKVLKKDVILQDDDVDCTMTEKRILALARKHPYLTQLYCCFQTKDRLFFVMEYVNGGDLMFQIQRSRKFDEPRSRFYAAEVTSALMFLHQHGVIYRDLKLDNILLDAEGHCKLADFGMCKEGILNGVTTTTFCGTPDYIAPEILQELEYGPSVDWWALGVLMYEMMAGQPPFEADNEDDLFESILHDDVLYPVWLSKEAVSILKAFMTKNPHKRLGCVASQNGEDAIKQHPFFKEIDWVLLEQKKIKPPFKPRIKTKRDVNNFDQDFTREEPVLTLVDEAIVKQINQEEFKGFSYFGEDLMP", "experiment": "KINOMEscan scanEDGE", "assay_type": "binding", "conditions": "20 uM"}, "[3]": {"system": "young mdx mice", "experiment": "3-week dosing of young (weaning) mdx mice, soleus histology", "assay_type": "in vivo, mouse", "conditions": "post-weaning mdx mice, 3 weeks", "excerpt": "C57BL/6 (stock no. 000664), C57BL/10J (stock no. 000665, control for mdx experiments), C57BL/10ScSn-Dmd^mdx/J (mdx, stock no. 001801), and D2.B10 (DBA/2-congenic) Dmd^mdx (DBA/2J mdx, stock no. 013141) mice were from The Jackson Laboratory. Sprague-Dawley rats were purchased from Charles River Laboratories. For ex vivo experiments, mice were 10–16 weeks old. For in situ experiments, mice were 8–14 weeks of age. For in vivo chronic dosing studies, mdx and DBA/2J mdx were 4–5 weeks of age at study start. Dosing was via a 10 mL/kg suspension (1% methyl cellulose, 0.1% Tween 80 in water). For studies in 14-day-old preweaning mice, PO dosing was via syrup suspension (3 mg/kg/d). […]\nFor sterile muscle injury, mice were anesthetized with isoflurane and 50 μL cardiotoxin (12 × 10^–6 M, 217503, Millipore) injected in the TA muscle. […] 8 μm cryosections were cut and stained with H&E. For each analysis, more than 10 slides (per condition/group) containing 6 muscle sections/sample were used, and myofibers in the injured area were counted and measured with a Mirax digital scanner and HALO software ([68]). […] Image analysis was performed using ImarisX64 software (Bitplane AG), and fiber sizing was calculated using minimal Feret’s diameter ([69]). […] Fiber type, size, and central nucleation were quantified with analysis via SMASH ([70]) and ImageJ (NIH). […]"}, "[4]": {"system": "slow skeletal rat soleus fibers", "experiment": "Skinned fiber force, rat soleus", "conditions": "100% type I, EDG-5506", "method": "Measurement of isometric force in skinned fibers from rabbit psoas, rat soleus, and rat cardiac trabeculae were performed as described previously ([65]) with an 802D fiber system (Aurora Scientific). Muscle bundles were thawed from –80°C and placed in relaxing solution. Single fibers were transferred to the testing apparatus with steel pins connected to a force transducer and motor (model 403A and 322C, Aurora Scientific), and collodion glue was applied. Temperature was set to 15°C for skeletal fibers and 30°C for rat cardiac trabeculae. The wells of the 802D were filled with different ratios of relaxing and activating pCa solutions as detailed previously ([65]). All control solutions contained 1% final DMSO. Traces were compared between control and compound runs to evaluate isometric force and calcium sensitivity."}, "[5]": {"molecular_target": "T3, MAPKAPK2 (Homo sapiens, UniProt P49137)", "T3 construct": "purchased Eurofins DiscoverX (KINOMEscan; SAFETYscan E/IC50 ELECT)", "T3 sequence (P49137 whole entry)": "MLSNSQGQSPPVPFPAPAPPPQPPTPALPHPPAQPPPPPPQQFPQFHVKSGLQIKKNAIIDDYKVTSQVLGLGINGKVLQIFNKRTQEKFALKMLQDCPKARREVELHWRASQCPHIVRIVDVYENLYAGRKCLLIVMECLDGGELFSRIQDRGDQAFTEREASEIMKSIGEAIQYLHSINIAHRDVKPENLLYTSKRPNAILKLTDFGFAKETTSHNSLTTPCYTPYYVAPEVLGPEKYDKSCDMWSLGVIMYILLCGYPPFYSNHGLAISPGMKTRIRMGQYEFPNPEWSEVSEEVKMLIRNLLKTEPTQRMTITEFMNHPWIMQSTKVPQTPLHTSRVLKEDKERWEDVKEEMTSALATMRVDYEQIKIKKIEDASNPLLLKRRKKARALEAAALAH", "experiment": "KINOMEscan scanEDGE", "assay_type": "binding", "conditions": "20 uM"}, "[6]": {"molecular_target": "T4, ERBB2 (Homo sapiens, UniProt P04626)", "T4 construct": "purchased Eurofins DiscoverX (KINOMEscan; SAFETYscan E/IC50 ELECT)", "T4 sequence (P04626 23-1255)": "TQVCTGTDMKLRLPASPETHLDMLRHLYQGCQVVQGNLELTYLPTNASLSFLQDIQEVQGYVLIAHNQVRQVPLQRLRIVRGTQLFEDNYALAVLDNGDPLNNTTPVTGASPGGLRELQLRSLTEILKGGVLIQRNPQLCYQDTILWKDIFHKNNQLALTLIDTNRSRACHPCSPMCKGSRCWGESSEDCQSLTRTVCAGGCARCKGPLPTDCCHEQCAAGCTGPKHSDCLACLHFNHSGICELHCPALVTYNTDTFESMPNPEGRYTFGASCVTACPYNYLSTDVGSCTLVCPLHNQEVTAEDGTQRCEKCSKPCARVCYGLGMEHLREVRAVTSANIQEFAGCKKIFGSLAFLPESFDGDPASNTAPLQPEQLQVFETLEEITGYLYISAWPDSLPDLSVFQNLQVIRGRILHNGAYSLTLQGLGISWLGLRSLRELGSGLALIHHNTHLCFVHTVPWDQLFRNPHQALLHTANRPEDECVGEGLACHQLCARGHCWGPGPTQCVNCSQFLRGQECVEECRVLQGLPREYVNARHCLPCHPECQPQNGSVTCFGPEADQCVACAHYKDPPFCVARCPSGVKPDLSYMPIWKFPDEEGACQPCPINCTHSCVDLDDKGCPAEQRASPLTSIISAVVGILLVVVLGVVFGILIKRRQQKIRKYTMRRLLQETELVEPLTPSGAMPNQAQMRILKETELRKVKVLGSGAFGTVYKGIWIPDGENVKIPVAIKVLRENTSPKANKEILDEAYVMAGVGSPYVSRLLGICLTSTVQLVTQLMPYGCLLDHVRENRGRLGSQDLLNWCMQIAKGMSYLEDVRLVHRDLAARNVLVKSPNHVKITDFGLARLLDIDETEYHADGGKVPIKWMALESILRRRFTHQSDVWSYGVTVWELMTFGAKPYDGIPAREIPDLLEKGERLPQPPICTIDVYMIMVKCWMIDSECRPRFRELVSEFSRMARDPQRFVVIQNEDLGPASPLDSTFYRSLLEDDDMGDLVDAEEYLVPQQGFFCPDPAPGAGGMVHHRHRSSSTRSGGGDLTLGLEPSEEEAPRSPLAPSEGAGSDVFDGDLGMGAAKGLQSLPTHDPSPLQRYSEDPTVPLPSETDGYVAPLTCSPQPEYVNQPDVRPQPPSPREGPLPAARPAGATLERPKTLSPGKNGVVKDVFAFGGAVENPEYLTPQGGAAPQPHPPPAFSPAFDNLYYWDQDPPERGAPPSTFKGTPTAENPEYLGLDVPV", "experiment": "KINOMEscan scanEDGE", "assay_type": "binding", "conditions": "20 uM"}, "[7]": {"molecular_target": "T5, ZAP70 (Homo sapiens, UniProt P43403)", "T5 construct": "purchased Eurofins DiscoverX (KINOMEscan; SAFETYscan E/IC50 ELECT)", "T5 sequence (P43403 whole entry)": "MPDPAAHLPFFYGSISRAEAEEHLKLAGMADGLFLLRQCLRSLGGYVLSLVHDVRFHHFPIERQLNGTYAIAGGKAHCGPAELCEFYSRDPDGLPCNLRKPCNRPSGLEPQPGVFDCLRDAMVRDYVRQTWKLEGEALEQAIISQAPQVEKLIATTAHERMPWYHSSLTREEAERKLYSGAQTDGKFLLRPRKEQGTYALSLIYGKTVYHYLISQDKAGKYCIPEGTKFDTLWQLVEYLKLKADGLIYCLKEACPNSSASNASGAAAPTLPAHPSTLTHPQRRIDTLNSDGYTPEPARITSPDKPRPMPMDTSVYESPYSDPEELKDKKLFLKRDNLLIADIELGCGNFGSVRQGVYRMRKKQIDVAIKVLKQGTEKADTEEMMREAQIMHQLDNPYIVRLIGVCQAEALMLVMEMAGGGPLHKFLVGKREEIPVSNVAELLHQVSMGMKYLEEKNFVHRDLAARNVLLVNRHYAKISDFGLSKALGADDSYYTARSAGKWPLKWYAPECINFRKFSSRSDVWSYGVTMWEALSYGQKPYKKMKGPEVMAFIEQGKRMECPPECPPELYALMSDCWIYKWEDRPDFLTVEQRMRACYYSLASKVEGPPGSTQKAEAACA", "experiment": "KINOMEscan scanEDGE", "assay_type": "binding", "conditions": "20 uM"}, "[8]": {"molecular_target": "T6, CSNK1D (Homo sapiens, UniProt P48730)", "T6 construct": "purchased Eurofins DiscoverX (KINOMEscan; SAFETYscan E/IC50 ELECT)", "T6 sequence (P48730 whole entry)": "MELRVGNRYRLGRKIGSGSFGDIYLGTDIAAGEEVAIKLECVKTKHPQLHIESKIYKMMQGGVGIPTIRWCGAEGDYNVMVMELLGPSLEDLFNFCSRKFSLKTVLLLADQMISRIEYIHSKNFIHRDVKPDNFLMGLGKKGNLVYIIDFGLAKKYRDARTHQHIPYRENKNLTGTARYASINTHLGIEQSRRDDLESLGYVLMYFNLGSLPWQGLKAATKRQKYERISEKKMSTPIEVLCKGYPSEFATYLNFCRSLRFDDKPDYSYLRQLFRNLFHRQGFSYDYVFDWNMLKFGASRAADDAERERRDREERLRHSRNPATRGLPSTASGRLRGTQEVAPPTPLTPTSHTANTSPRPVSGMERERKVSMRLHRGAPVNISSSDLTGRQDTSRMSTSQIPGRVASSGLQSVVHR", "experiment": "KINOMEscan scanEDGE", "assay_type": "binding", "conditions": "20 uM"}, "[9]": {"molecular_target": "T7, FAK (Homo sapiens, UniProt Q05397)", "T7 construct": "purchased Eurofins DiscoverX (KINOMEscan; SAFETYscan E/IC50 ELECT)", "T7 sequence (Q05397 whole entry)": "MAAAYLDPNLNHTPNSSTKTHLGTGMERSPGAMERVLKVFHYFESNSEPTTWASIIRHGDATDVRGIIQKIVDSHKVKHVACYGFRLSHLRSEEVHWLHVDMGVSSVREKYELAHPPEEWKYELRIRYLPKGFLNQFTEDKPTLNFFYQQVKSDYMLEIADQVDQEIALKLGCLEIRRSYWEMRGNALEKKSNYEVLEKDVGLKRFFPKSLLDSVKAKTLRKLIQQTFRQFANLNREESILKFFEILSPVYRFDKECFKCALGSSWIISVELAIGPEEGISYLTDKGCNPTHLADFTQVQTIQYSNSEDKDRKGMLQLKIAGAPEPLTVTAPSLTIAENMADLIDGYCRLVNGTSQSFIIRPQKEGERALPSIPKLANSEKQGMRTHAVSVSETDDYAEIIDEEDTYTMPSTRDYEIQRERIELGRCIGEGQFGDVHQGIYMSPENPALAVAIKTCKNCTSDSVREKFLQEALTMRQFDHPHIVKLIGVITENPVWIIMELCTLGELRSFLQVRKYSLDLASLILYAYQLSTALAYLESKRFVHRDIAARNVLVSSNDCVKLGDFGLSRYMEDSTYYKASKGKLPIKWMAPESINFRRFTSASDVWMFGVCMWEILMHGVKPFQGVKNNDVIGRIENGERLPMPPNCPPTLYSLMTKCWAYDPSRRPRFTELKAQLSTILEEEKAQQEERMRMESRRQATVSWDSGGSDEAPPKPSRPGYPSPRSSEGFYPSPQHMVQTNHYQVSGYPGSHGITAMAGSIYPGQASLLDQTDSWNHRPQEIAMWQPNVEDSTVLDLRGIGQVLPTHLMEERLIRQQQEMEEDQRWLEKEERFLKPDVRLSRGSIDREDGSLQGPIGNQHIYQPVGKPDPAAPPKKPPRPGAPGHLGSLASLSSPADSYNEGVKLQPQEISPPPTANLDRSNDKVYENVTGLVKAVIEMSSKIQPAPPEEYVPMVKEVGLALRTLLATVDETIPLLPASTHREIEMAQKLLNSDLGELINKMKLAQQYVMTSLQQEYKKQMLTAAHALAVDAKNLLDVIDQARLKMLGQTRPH", "experiment": "KINOMEscan scanEDGE", "assay_type": "binding", "conditions": "20 uM"}, "[10]": {"system": "mouse TA muscle", "experiment": "In situ TA force and lengthening injury", "assay_type": "in vivo", "conditions": "oral", "method": "Measurement of isometric force and eccentric injury response in situ was performed in mouse TA muscle based on published protocols ([30]). Mice were anesthetized with 2% isoflurane (0.7%–1.5% maintenance) on a 37°C platform. The distal tendon to the TA and EDL muscle was attached with 4-0 suture a servomotor (Aurora Scientific). The sciatic nerve was exposed at the knee for hook electrodes. For compound assessment, baseline isometric contraction was assessed at 25–175 Hz (9 mA, 300 ms) followed by 100 Hz stimuli every 5 minutes. After 15 minutes, compound was dosed PO, and recording continued for 4 hours followed by a second force frequency. For in situ eccentric injury, compound was administered PO, muscle was stimulated every 5 minutes at 100 Hz for 3.5 hours, and then 2 lengthening contractions were performed (10 min apart, 100 ms at 150 Hz, then lengthening 0.2 L0 at 2 L0/s and hold for 100 ms). Isometric force before and 10 minutes after the injury contractions was recorded."}}, "data": [{"smiles": "O=c1ccc(-c2cnc(OCC(F)(F)F)nc2)nn1Cc1cncc(F)c1", "note": "[EDG-5506]", "values": [{"measurement": "binding, % of control", "setting": "[1]", "result": "100 % of control"}, {"measurement": "binding, % of control", "setting": "[2]", "result": "81 % of control"}, {"measurement": "central nucleation in soleus", "setting": "[3]", "result": "decreased central nucleation"}, {"measurement": "effect on force, slow skeletal fibers", "setting": "[4]", "result": "no effect"}, {"measurement": "binding, % of control", "setting": "[5]", "result": "100 % of control"}, {"measurement": "binding, % of control", "setting": "[6]", "result": "76 % of control"}, {"measurement": "binding, % of control", "setting": "[7]", "result": "85 % of control"}, {"measurement": "binding, % of control", "setting": "[8]", "result": "94 % of control"}, {"measurement": "binding, % of control", "setting": "[9]", "result": "100 % of control"}, {"measurement": "decrease in isometric force at protective doses", "setting": "[10]; mdx TA in situ", "result": "< 10", "unit": "%"}, {"measurement": "strength drop after in situ lengthening injury", "setting": "[10]; mdx TA muscle, 2 lengthening contractions", "result": "dramatically improved"}]}]}
